# What was measured:
# [1] = tested on: Clinical isolates of P. aeruginosa from cystic fibrosis patients; experiment: Detachment of mature biofilms on peg lids, crystal violet; assay type: cell-based; conditions: 5 ug/ml; about 40 hours; eighteen clinical isolates
# Experimental: Clinical isolates of P. aeruginosa from cystic fibrosis patients were passed twice on tryptic soy agar with 5% sheep blood after retrieval from −80° C. and then grown overnight in CAMHB. After dilution of a culture to 0.5 McFarland in broth medium, 100 μl was transferred in triplicate to wells of a flat-bottom 96-well microtiter plate. Bacterial biofilms were formed by immersing the pegs of a modified polystyrene microtiter lid into this biofilm growth plate, followed by incubation at 37° C. for 20 hours with no movement.
# Peg lids were rinsed three times in sterile water, placed onto flat-bottom microtiter plates containing biofilm inhibitors at 5 ug/ml in 100 μl of CAMHB per well and incubated for approximately 40 hours at 37° C.
# Pegs were rinsed, placed in a 0.1% (wt/vol) crystal violet solution for 15 min, rinsed again, and dried for several hours. To solubilize adsorbed crystal violet, pegs were incubated in 95% ethanol (150 μl per well of a flat-bottom microtiter plate) for 15 min. The absorbance was read at 590 nm on a plate reader. The wells containing asiatic acid were compared to negative controls. Negative controls were prepared as stated above but without asiatic acid.
# [2] = tested on: P. aeruginosa strain PAO1; experiment: Rotating disk reactor (RDR) biofilm test with and without tobramycin; assay type: cell-based, Pseudomonas aeruginosa; conditions: for Test Compound, log10 CFU: no tobramycin; for Tobramycin and Test Compound, log10 CFU: then tobramycin 100 μg/ml 2 h
# Experimental: Biofilm formation of P. aeruginosa was evaluated using a standardized biofilm method with a rotating disk reactor (RDR). This method provides a model resembling the formation of biofilms in cystic fibrosis patients. The rotating disk reactor consists of a one-liter glass beaker fitted with a drain spout. The bottom of the vessel contains a magnetically driven rotor with six 1.27 cm diameter coupons constructed from polystyrene. The rotor consists of a star-head magnetic stir bar upon which a disk was affixed to hold the coupons. The vessel with the stir bar was placed on a stir plate and rotated to provide fluid shear. A nutrient solution (AB Trace Medium with 0.3 mM glucose, see Table 1 below for composition) was added through a stopper in the top of the reactor at a flow rate of 5 ml/min. The reactor volume was approximately 180 ml and varied slightly between reactors depending on the placement of the drain spout and the rotational speed of the rotor. At a volume of 180 ml, the residence time of the reactors was 36 minutes. The reactors were operated at room temperature (c.a. 26° C.).
# For each test, two RDRs were operated in parallel with one receiving test compound and the other serving as an untreated control. The RDRs were sterilized by autoclave, then filled with sterile medium and inoculated with P. aeruginosa strain PAO1. The reactors were then incubated at room temperature in batch mode (no medium flow) for a period of 24 hours, after which the flow was initiated for a further 24 hour incubation. Test compounds were dissolved in 10 ml ethanol to achieve a concentration of 1.8 mg/ml. After the 48 hours of biofilm development described above, the 10 ml of ethanol containing the test compounds were added to the reactor to achieve a final concentration of approximately 50, 100, or 200 μg/ml. Control reactors received 10 ml of ethanol. The reactors were then incubated for an additional 24 hours in batch (no flow) mode. After this incubation period, the six coupons were removed from each reactor and placed in 12-well polystyrene tissue culture plates with wells containing either 2 ml of a 100 μg/ml tobramycin solution or 2 ml of phosphate-buffered saline (PBS). These plates were incubated at room temperature for two hours. The coupons were then rinsed by three transfers to plates containing 2 ml of fresh PBS. For each two RDR reactors run in parallel, four sets of three coupons were obtained: one set with no test compound treatment and no tobramycin treatment, one set with no test compound treatment and tobramycin treatment, one set treated with a test compound treatment and no tobramycin treatment, and one set treated with a test compound treatment and tobramycin. After rinsing, one coupon of each set of three was stained with a LIVE/DEAD® BacLight™ Bacterial Viability Kit (Molecular Probes, Eugene Oreg.) and imaged using epifluorescent microscopy. The remaining two coupons were placed in 10 ml of PBS and sonicated for five minutes to remove and disperse biofilm cells. The resulting bacterial suspensions were then serially diluted in PBS and plated on tryptic soy agar plates for enumeration of culturable bacteria. The plates were incubated for 24 hours at 37° C. before colony forming units (CFU) were determined.
# The results are averages from experiments performed on three separate days for each test compound. The values reported are as log10 CFU.
# S. sobrinus 6715 = experiment: Biofilm growth inhibition in polycarbonate tubes; assay type: cell-based; conditions: Streptococcus sobrinus, 40 μg/mL
# [3] = Bladder concentrations in rats after oral dose; conditions: rat, in vivo, po, 50 mg/kg
# Experimental: Pharmacokinetic studies of asiatic acid and madecassic acid in rats were performed separately. Asiatic acid and madecassic acid were evaluated at 50 mg/kg (oral). Two animals were assigned to each group. Prior to dosing, a baseline blood sample was taken from each animal. At time zero, asiatic acid and madecassic acid, a single bolus dose in 50% Labrasol (Gattefosse) was given to each animal. Bladders were analyzed at 24 hours. Concentrations of both asiatic acid and madecassic acid in the bladder were approximately 30 μg/g at 24 hours.
smiles,measurement,setting,value
"C[C@H]1[C@H](C)CC[C@]2(C(=O)O)CC[C@]3(C)C(=CC[C@@H]4[C@@]5(C)C[C@@H](O)[C@H](O)[C@@](C)(CO)[C@@H]5CC[C@]43C)[C@H]12 [Asiatic acid, asiatic acid]",average detachment of mature biofilms compared to negative controls,[1],approximately 50%
same,"Test Compound, log10 CFU",[2]; test compound 50 μg/ml 24 h,7.7 log10 CFU
same,"Tobramycin and Test Compound, log10 CFU",[2]; test compound 50 μg/ml 24 h,5.3 log10 CFU
same,"Test Compound, log10 CFU",[2]; test compound 100 μg/ml 24 h,7.7 log10 CFU
same,"Tobramycin and Test Compound, log10 CFU",[2]; test compound 100 μg/ml 24 h,5.5 log10 CFU
same,"Test Compound, log10 CFU",[2]; test compound 200 μg/ml 24 h,7.5 log10 CFU
same,"Tobramycin and Test Compound, log10 CFU",[2]; test compound 200 μg/ml 24 h,5.2 log10 CFU
same,inhibition at 40 µg/mL,S. sobrinus 6715,> 75%
same,concentration at 24 h,[3],~30000 ng/g

# From patent US20060264411A1, “Control of biofilm formation” (priority 2005, published 2006)
